ChEMBL document CHEMBL1142143, “Library screen for inhibitors targeting norovirus binding to histo-blood group antigen receptors” (Antimicrob Agents Chemother, 2007)
Converted amounts (≈) assume the structure as drawn.

Assays:
Norovirus [1] = test: Inhibition of recombinant norovirus VA387 binding to human HBGA A antigen by EIA; assay type: functional
Norovirus [2] = test: Inhibition of norovirus recombinant VA387 binding to human HBGA B antigen by EIA; assay type: functional
Norovirus [3] = test: Inhibition of recombinant norovirus VA387 binding to human HBGA H antigen by EIA; assay type: functional
Norovirus [4] = test: Inhibition of recombinant norovirus Norwalk binding to human HBGA A antigen by EIA; assay type: functional
Norovirus [5] = test: Inhibition of recombinant norovirus Norwalk binding to human HBGA H antigen by EIA; assay type: functional
Norovirus [6] = test: Inhibition of recombinant norovirus VA207 binding to human HBGA Le antigen by EIA; assay type: functional
Norovirus [7] = test: Inhibition of recombinant norovirus MOH binding to human HBGA A antigen by EIA; assay type: functional
Norovirus [8] = test: Inhibition of recombinant norovirus MOH binding to human HBGA B antigen by EIA; assay type: functional
[9] = Solubility of the compound; assay type: physicochemical
[10] = Cytotoxicity against HeLa cells by MTS assay; assay type: cell-based; conditions: human
Norovirus [11] = test: Inhibition of norovirus VA387 binding to HBGA A type antigen in human saliva at 10.9 uM by EIA; assay type: functional
Norovirus [12] = test: Inhibition of norovirus VA387 binding to HBGA A type antigen in human saliva at 2.2 uM by EIA; assay type: functional
Norovirus [13] = test: Inhibition of norovirus VA387 binding to HBGA A type antigen in human saliva at 13.7 uM by EIA; assay type: functional
Norovirus [14] = test: Inhibition of norovirus VA387 binding to HBGA A type antigen in human saliva at 11.7 uM by EIA; assay type: functional
Norovirus [15] = test: Inhibition of norovirus VA387 binding to HBGA A type antigen in human saliva at 11.8 uM by EIA; assay type: functional
Norovirus [16] = test: Inhibition of norovirus VA387 binding to HBGA A type antigen in human saliva at 9.3 uM by EIA; assay type: functional
Norovirus [17] = test: Inhibition of norovirus VA387 binding to HBGA A type antigen in human saliva at 12.8 uM by EIA; assay type: functional
Norovirus [18] = test: Inhibition of norovirus VA387 binding to HBGA A type antigen in human saliva at 13.6 uM by EIA; assay type: functional
Norovirus [19] = test: Inhibition of norovirus VA387 binding to HBGA A type antigen in human saliva at 4.8 uM by EIA; assay type: functional
Norovirus [20] = test: Inhibition of norovirus VA387 binding to HBGA A type antigen in human saliva at 9.1 uM by EIA; assay type: functional
Norovirus [21] = test: Inhibition of norovirus VA387 binding to HBGA A type antigen in human saliva at 9.6 uM by EIA; assay type: functional
Norovirus [22] = test: Inhibition of norovirus VA387 binding to HBGA A type antigen in human saliva at 8.1 uM by EIA; assay type: functional

For `O=C(/C=C/c1ccc(-c2cc(Cl)cc(Cl)c2)o1)c1cccs1`, the EC50 (Norovirus [1]) was 10.9 µM, the EC50 (Norovirus [2]) was over 100 µM and the EC50 (Norovirus [3]) was over 100 µM. It also gave an EC50 (Norovirus [4]) of over 100 µM, an EC50 (Norovirus [5]) of over 100 µM and an EC50 (Norovirus [6]) of over 100 µM. For the same molecule, the EC50 (Norovirus [7]) was over 100 µM, the EC50 (Norovirus [8]) was over 100 µM and the solubility [9] was 400 µM (≈ 140 µg/mL). The CC50 [10] was 157 µM and the inhibition at 10.9 µM (Norovirus [11]) was 49%.

Work on `CCC[n+]1cc(-c2ccccc2)nc(N2CCOCC2)n1.[I-]` yielded an EC50 (Norovirus [1]) of 2.2 µM, an EC50 (Norovirus [2]) of 5.8 µM and an EC50 (Norovirus [3]) of 6.8 µM. The EC50 (Norovirus [4]) was 15.6 µM, the EC50 (Norovirus [5]) was 18.9 µM and the EC50 (Norovirus [6]) was over 100 µM. It also gave an EC50 (Norovirus [7]) of over 100 µM, an EC50 (Norovirus [8]) of over 100 µM and a solubility [9] of 400 µM. It also gave a CC50 [10] of 158 µM and an inhibition at 2.2 µM (Norovirus [12]) of 49.3%.

With `CCCOc1ccc(-c2cc(C(=O)N/N=C/c3ccc(OCC)cc3)[nH]n2)cc1` the EC50 (Norovirus [1]) was 13.7 µM, the EC50 (Norovirus [2]) was over 100 µM and the EC50 (Norovirus [3]) was over 100 µM. It also gave an EC50 (Norovirus [4]) of over 100 µM, an EC50 (Norovirus [5]) of over 100 µM and an EC50 (Norovirus [6]) of over 100 µM. The EC50 (Norovirus [7]) was over 100 µM, the EC50 (Norovirus [8]) was over 100 µM and the solubility [9] was over 100 µM. For the same molecule, the CC50 [10] was 12.3 µM and the inhibition at 13.7 µM (Norovirus [13]) was 51.1%.

`Cc1ccc(NC(=O)CC(c2ccccc2)c2ccccc2)cc1C` gave an EC50 (Norovirus [1]) of 11.7 µM, an EC50 (Norovirus [2]) of over 100 µM and an EC50 (Norovirus [3]) of 47.5 µM. It also gave an EC50 (Norovirus [4]) of over 100 µM, an EC50 (Norovirus [5]) of over 100 µM and an EC50 (Norovirus [6]) of over 100 µM. For the same molecule, the EC50 (Norovirus [7]) was over 100 µM, the EC50 (Norovirus [8]) was over 100 µM and the solubility [9] was over 100 µM. For the same molecule, the CC50 [10] was 40.3 µM and the inhibition at 11.7 µM (Norovirus [14]) was 51.4%.

With `CC(C)OC(=O)CC(=O)CSc1nc(-c2ccc(F)cc2)cc(-c2cccs2)c1C#N` the EC50 (Norovirus [1]) was 11.8 µM, the EC50 (Norovirus [2]) was 7.9 µM and the EC50 (Norovirus [3]) was 7.5 µM. The EC50 (Norovirus [4]) was 35 µM, the EC50 (Norovirus [5]) was 19.8 µM and the EC50 (Norovirus [6]) was over 100 µM. For the same molecule, the EC50 (Norovirus [7]) was over 100 µM, the EC50 (Norovirus [8]) was over 100 µM and the solubility [9] was 400 µM (≈ 182 µg/mL). It also gave a CC50 [10] of 220 µM and an inhibition at 11.8 µM (Norovirus [15]) of 50.9%.

Molecule `O=CC(=O)c1ccc2c(c1)Cc1cc(C(=O)C=O)ccc1-2` has an EC50 (Norovirus [1]) of 9.3 µM, an EC50 (Norovirus [2]) of 44.6 µM and an EC50 (Norovirus [3]) of 41.1 µM. For the same molecule, the EC50 (Norovirus [4]) was over 100 µM, the EC50 (Norovirus [5]) was over 100 µM and the EC50 (Norovirus [6]) was over 100 µM. It also gave an EC50 (Norovirus [7]) of over 100 µM, an EC50 (Norovirus [8]) of over 100 µM and a solubility [9] of 400 µM (≈ 111 µg/mL). For the same molecule, the CC50 [10] was 52.7 µM and the inhibition at 9.3 µM (Norovirus [16]) was 53.8%.

Molecule `CCCCc1ccc(NC(=O)c2ccc(C)cc2)cc1` has an EC50 (Norovirus [1]) of 12.8 µM, an EC50 (Norovirus [2]) of 32.5 µM and an EC50 (Norovirus [3]) of 28.2 µM. For the same molecule, the EC50 (Norovirus [4]) was 53 µM, the EC50 (Norovirus [5]) was 47.8 µM and the EC50 (Norovirus [6]) was over 100 µM. For the same molecule, the EC50 (Norovirus [7]) was over 100 µM, the EC50 (Norovirus [8]) was over 100 µM and the solubility [9] was 400 µM (≈ 107 µg/mL). The CC50 [10] was 180 µM and the inhibition at 12.8 µM (Norovirus [17]) was 54.3%.

Work on `O=C(C(=O)c1ccc(C(=O)c2ccc(C(=O)C(=O)c3ccc(Sc4ccccc4)cc3)cc2)cc1)c1ccc(Sc2ccccc2)cc1` yielded an EC50 (Norovirus [1]) of 12.8 µM, an EC50 (Norovirus [2]) of 35.3 µM and an EC50 (Norovirus [3]) of 26.1 µM. For the same molecule, the EC50 (Norovirus [4]) was over 100 µM, the EC50 (Norovirus [5]) was over 100 µM and the EC50 (Norovirus [6]) was over 100 µM. For the same molecule, the EC50 (Norovirus [7]) was over 100 µM, the EC50 (Norovirus [8]) was over 100 µM and the solubility [9] was 400 µM (≈ 265 µg/mL). The CC50 [10] was 263 µM and the inhibition at 12.8 µM (Norovirus [17]) was 46.1%.

`Cc1cc(O)c(Sc2c(O)cc(C)cc2C(C)(C)c2ccccc2)c(C(C)(C)c2ccccc2)c1` showed an EC50 (Norovirus [1]) of 13.6 µM, an EC50 (Norovirus [2]) of 49.5 µM and an EC50 (Norovirus [3]) of 48.1 µM. The EC50 (Norovirus [4]) was over 100 µM, the EC50 (Norovirus [5]) was over 100 µM and the EC50 (Norovirus [6]) was over 100 µM. The EC50 (Norovirus [7]) was over 100 µM, the EC50 (Norovirus [8]) was over 100 µM and the solubility [9] was 400 µM (≈ 193 µg/mL). The CC50 [10] was 70.6 µM and the inhibition at 13.6 µM (Norovirus [18]) was 48.9%.

Work on `CCOC(=O)C1=C(C)OC(N)=C(C#N)C1c1ccc(OCc2ccc(C)cc2)c([N+](=O)[O-])c1` (stereo not drawn) yielded an EC50 (Norovirus [1]) of 4.8 µM, an EC50 (Norovirus [2]) of 18.6 µM and an EC50 (Norovirus [3]) of 11.9 µM. The EC50 (Norovirus [4]) was 22.9 µM, the EC50 (Norovirus [5]) was 24.5 µM and the EC50 (Norovirus [6]) was over 100 µM. The EC50 (Norovirus [7]) was 16.5 µM, the EC50 (Norovirus [8]) was 13.3 µM and the solubility [9] was 400 µM (≈ 180 µg/mL). For the same molecule, the CC50 [10] was 78.6 µM and the inhibition at 4.8 µM (Norovirus [19]) was 61.1%.

Molecule `CCCc1ccc(OCc2ccc(C(=O)N/N=C/c3ccc(Cl)cc3O)o2)cc1` has an EC50 (Norovirus [1]) of 9.1 µM, an EC50 (Norovirus [2]) of 13.5 µM and an EC50 (Norovirus [3]) of 7.2 µM. The EC50 (Norovirus [4]) was 18.2 µM, the EC50 (Norovirus [5]) was 36.3 µM and the EC50 (Norovirus [6]) was over 100 µM. It also gave an EC50 (Norovirus [7]) of over 100 µM, an EC50 (Norovirus [8]) of over 100 µM and a solubility [9] of 400 µM (≈ 165 µg/mL). It also gave a CC50 [10] of 46.7 µM and an inhibition at 9.1 µM (Norovirus [20]) of 62.9%.

In the case of `Oc1ccc(/C=N/c2nccs2)c(O)c1`, the EC50 (Norovirus [1]) is reported as 9.6 µM, the EC50 (Norovirus [2]) is reported as 26 µM and the EC50 (Norovirus [3]) is reported as 7.6 µM. The EC50 (Norovirus [4]) was over 100 µM, the EC50 (Norovirus [5]) was over 100 µM and the EC50 (Norovirus [6]) was over 100 µM. It also gave an EC50 (Norovirus [7]) of over 100 µM, an EC50 (Norovirus [8]) of over 100 µM and a solubility [9] of 400 µM (≈ 88.1 µg/mL). It also gave a CC50 [10] of 324 µM and an inhibition at 9.6 µM (Norovirus [21]) of 45.3%.

`C=C(SCCNC(=O)NCCCCCCNC(=O)NCCSc1ccccc1O)/C(C)=C\C` showed an EC50 (Norovirus [1]) of 8.1 µM, an EC50 (Norovirus [2]) of 13.1 µM and an EC50 (Norovirus [3]) of 14.2 µM. It also gave an EC50 (Norovirus [4]) of 14.1 µM, an EC50 (Norovirus [5]) of 22.6 µM and an EC50 (Norovirus [6]) of over 100 µM. It also gave an EC50 (Norovirus [7]) of over 100 µM, an EC50 (Norovirus [8]) of over 100 µM and a solubility [9] of 400 µM (≈ 198 µg/mL). It also gave a CC50 [10] of 113 µM and an inhibition at 8.1 µM (Norovirus [22]) of 59.3%.
